Source: patent publication US8778871B2 (Takeda Pharmaceutical Company Limited, priority 2004, dated 2014)
Starred links: 1 amine or outer side, 2 acyl side, 3 side chain; linkers in the order of their positions; H or OH if unused. Non-standard residues stand in square brackets, D forms with d. Residues, ends and D or L forms follow the SMILES beside them. X8 = O=C([C@H](Cc1ccc2ccccc2n1)N[*:1])[*:2]; Arg(Me) = CNC(=N)NCCC[C@H](N)C(=O)O; Cha = N[C@@H](CC1CCCCC1)C(=O)O

Target: T1, hOT7T175 (Homo sapiens, UniProt Q969F8, L364H)
T1 construct: expressed in transfected cells
Assay: Intracellular Ca ion level-increasing activity using FLIPR (180 seconds; specific activity to Metastin (1-54))
Format: cell-based
Details: hOT7T175/CHO, relative to Metastin (1-54) = 1

T1 sequence (Q969F8 whole entry L364H): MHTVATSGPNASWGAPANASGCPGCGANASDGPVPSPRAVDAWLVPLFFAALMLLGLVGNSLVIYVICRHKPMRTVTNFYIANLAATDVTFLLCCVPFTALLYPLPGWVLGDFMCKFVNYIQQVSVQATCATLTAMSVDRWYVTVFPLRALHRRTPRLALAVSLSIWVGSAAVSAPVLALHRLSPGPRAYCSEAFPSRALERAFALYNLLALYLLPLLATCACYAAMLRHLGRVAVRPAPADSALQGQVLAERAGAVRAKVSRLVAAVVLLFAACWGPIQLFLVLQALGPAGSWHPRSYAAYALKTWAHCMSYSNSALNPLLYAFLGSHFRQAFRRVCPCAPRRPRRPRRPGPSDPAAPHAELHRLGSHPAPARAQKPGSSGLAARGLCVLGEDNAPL

| Compound | Specific Act. (intracellular Ca ion level-increasing activity, specific activity to Metastin (1-54)) |
| --- | --- |
| CCNC(=N)NCCC[C@H](NC(=O)[C@H](CC(C)C)NC(=O)CNC(=O)[C@H](Cc1ccccc1)NC(=O)[C@H](CO)NC(=O)[C@H](CC(N)=O)NC(=O)[C@H](Cc1c[nH]c2ccccc12)NC(=O)[C@H](CC(N)=O)NC(=O)[C@H](N)Cc1ccc(O)cc1)C(=O)N[C@@H](Cc1ccccc1)C(N)=O [Compound No. 192] | 1 |
| CCCNC(=N)NCCC[C@H](NC(=O)[C@H](CC(C)C)NC(=O)CNC(=O)[C@H](Cc1ccccc1)NC(=O)[C@H](CO)NC(=O)[C@H](CC(N)=O)NC(=O)[C@H](Cc1c[nH]c2ccccc12)NC(=O)[C@H](CC(N)=O)NC(=O)[C@H](N)Cc1ccc(O)cc1)C(=O)N[C@@H](Cc1ccccc1)C(N)=O [Compound No. 193] | ½ |
| CC(C)C[C@H](NC(=O)CNC(=O)[C@H](Cc1ccccc1)NC(=O)[C@H](CO)NC(=O)[C@H](CC(N)=O)NC(=O)[C@H](Cc1c[nH]c2ccccc12)NC(=O)[C@H](CC(N)=O)NC(=O)[C@@H](N)Cc1ccc(O)cc1)C(=O)N[C@@H](CCCNC(=N)N)C(=O)N[C@@H](Cc1cccc(F)c1)C(N)=O [Compound No. 197] | 10 |
| CC(C)C[C@H](NC(=O)CNC(=O)[C@H](Cc1ccccc1)NC(=O)[C@H](CO)NC(=O)[C@H](CC(N)=O)NC(=O)[C@H](Cc1c[nH]c2ccccc12)NC(=O)[C@H](CC(N)=O)NC(=O)[C@@H](N)Cc1ccc(O)cc1)C(=O)N[C@@H](CCCNC(=N)N)C(=O)N[C@@H](Cc1ccc(F)c(F)c1)C(N)=O [Compound No. 198] | 10 |
| CC(C)C[C@H](NC(=O)CNC(=O)[C@H](Cc1ccccc1)NC(=O)[C@H](CO)NC(=O)[C@H](CC(N)=O)NC(=O)[C@H](Cc1c[nH]c2ccccc12)NC(=O)[C@H](CC(N)=O)NC(=O)[C@@H](N)Cc1ccc(O)cc1)C(=O)N[C@@H](CCCNC(=N)N)C(=O)N[C@@H](Cc1ccc(Cl)c(Cl)c1)C(N)=O [Compound No. 199] | 3 |
| CC(C)C[C@H](NC(=O)CNC(=O)[C@H](Cc1ccccc1)NC(=O)[C@H](CO)NC(=O)[C@H](CC(N)=O)NC(=O)[C@H](Cc1c[nH]c2ccccc12)NC(=O)[C@H](CC(N)=O)NC(=O)[C@@H](N)Cc1ccc(O)cc1)C(=O)N[C@@H](CCCNC(=N)N)C(=O)N[C@@H](Cc1cccc(C(F)(F)F)c1)C(N)=O [Compound No. 200] | 10 |
| CC(C)C[C@H](NC(=O)CNC(=O)[C@H](Cc1ccccc1)NC(=O)[C@H](CO)NC(=O)[C@H](CC(N)=O)NC(=O)[C@H](Cc1c[nH]c2ccccc12)NC(=O)[C@H](CC(N)=O)NC(=O)[C@@H](N)Cc1ccc(O)cc1)C(=O)N[C@@H](CCCNC(=N)N)C(=O)N[C@@H](Cc1ccc2ccccc2n1)C(N)=O [Compound No. 201] (H-YNWNSFGLR[X8]-NH2) | 1 |
| CNC(=N)NCCC[C@H](NC(=O)[C@H](CC(C)C)NC(=O)CNC(=O)[C@H](CC1CCCCC1)NC(=O)[C@H](CO)NC(=O)[C@H](CC(N)=O)NC(=O)[C@H](Cc1c[nH]c2ccccc12)NC(=O)[C@H](CC(N)=O)NC(=O)[C@H](N)Cc1ccc(O)cc1)C(=O)N[C@@H](Cc1ccccc1)C(N)=O [Compound No. 203, D-Tyr-Asn-Trp-Asn-Ser-Cha-Gly-Leu-Arg(Me)-Phe-NH2] (H-[dY]NWNS[Cha]GL[Arg(Me)]F-NH2) | 10 |
| CNC(=N)NCCC[C@H](NC(=O)[C@H](CC(C)C)NC(=O)[C@H](C)NC(=O)[C@H](Cc1ccccc1)NC(=O)[C@H](CO)NC(=O)[C@H](CC(N)=O)NC(=O)[C@H](Cc1c[nH]c2ccccc12)NC(=O)[C@H](CC(N)=O)NC(=O)[C@H](N)Cc1ccc(O)cc1)C(=O)N[C@@H](Cc1ccccc1)C(N)=O [Compound No. 204] (H-[dY]NWNSFAL[Arg(Me)]F-NH2) | 5 |
| CNC(=N)NCCC[C@H](NC(=O)[C@H](CC(C)C)NC(=O)CNC(=O)[C@H](Cc1ccccc1)NC(=O)[C@H](CO)NC(=O)[C@H](CC(N)=O)NC(=O)[C@@H](NC(=O)[C@H](CC(N)=O)NC(=O)[C@H](N)Cc1ccc(O)cc1)[C@@H](C)O)C(=O)N[C@@H](Cc1ccccc1)C(N)=O [Compound No. 205] (H-[dY]NTNSFGL[Arg(Me)]F-NH2) | 10 |
| CNC(=N)NCCC[C@H](NC(=O)[C@@H](NC(=O)CNC(=O)[C@H](Cc1ccccc1)NC(=O)[C@H](CO)NC(=O)[C@H](CC(N)=O)NC(=O)[C@H](Cc1c[nH]c2ccccc12)NC(=O)[C@H](CC(N)=O)NC(=O)[C@H](N)Cc1ccc(O)cc1)C(C)C)C(=O)N[C@@H](Cc1ccccc1)C(N)=O [Compound No. 213] (H-[dY]NWNSFGV[Arg(Me)]F-NH2) | 2 |
| CNC(=N)NCCC[C@H](NC(=O)[C@H](CC(C)C)NC(=O)CNC(=O)[C@H](Cc1ccccc1)NC(=O)[C@H](CO)NC(=O)[C@H](CC(N)=O)NC(=O)[C@H](Cc1c[nH]c2ccccc12)NC(=O)[C@H](CCC(N)=O)NC(=O)[C@H](N)Cc1ccc(O)cc1)C(=O)N[C@@H](Cc1ccccc1)C(N)=O [Compound No. 214] (H-[dY]QWNSFGL[Arg(Me)]F-NH2) | 10 |
| CNC(=N)NCCC[C@H](NC(=O)[C@H](CC(C)C)NC(=O)CNC(=O)[C@H](Cc1ccccc1)NC(=O)[C@H](CO)NC(=O)[C@H](CC(N)=O)NC(=O)[C@H](Cc1c[nH]c2ccccc12)NC(=O)[C@@H](NC(=O)[C@H](N)Cc1ccc(O)cc1)[C@@H](C)O)C(=O)N[C@@H](Cc1ccccc1)C(N)=O [Compound No. 215] (H-[dY]TWNSFGL[Arg(Me)]F-NH2) | 10 |
| CNC(=N)NCCC[C@H](NC(=O)[C@H](CC(C)C)NC(=O)CNC(=O)[C@H](Cc1ccccc1)NC(=O)[C@H](CO)NC(=O)[C@H](CC(N)=O)NC(=O)[C@H](Cc1c[nH]c2ccccc12)NC(=O)[C@H](N)CC(N)=O)C(=O)N[C@@H](Cc1ccccc1)C(N)=O [Compound No. 216] (H-[dN]WNSFGL[Arg(Me)]F-NH2) | 1 |
| CCNC(=N)NCCC[C@H](NC(=O)[C@H](CC(C)C)NC(=O)CNC(=O)[C@H](Cc1ccccc1)NC(=O)[C@H](CO)NC(=O)[C@H](CC(N)=O)NC(=O)[C@H](Cc1c[nH]c2ccccc12)NC(=O)[C@H](CC(N)=O)NC(=O)[C@@H](N)Cc1ccc(O)cc1)C(=O)N[C@@H](Cc1ccccc1)C(N)=O [Compound No. 220] | 5 |
| CNC(=N)NCCC[C@H](NC(=O)[C@H](CC(C)C)NC(=O)CNC(=O)[C@H](Cc1ccccc1)NC(=O)[C@H](CO)NC(=O)[C@H](CC(N)=O)NC(=O)[C@@H](Cc1c[nH]c2ccccc12)NC(=O)[C@H](N)Cc1ccc(O)cc1)C(=O)N[C@@H](Cc1ccccc1)C(N)=O [Compound No. 224, D-Tyr-D-Trp-Asn-Ser-Phe-Gly-Leu-Arg(Me)-Phe-NH2] (H-[dY][dW]NSFGL[Arg(Me)]F-NH2) | 2 |
| CNC(=N)NCCC[C@H](NC(=O)[C@H](CC(C)C)NC(=O)CNC(=O)[C@H](Cc1ccccc1)NC(=O)[C@H](CO)NC(=O)[C@H](CC(N)=O)NC(=O)[C@@H](Cc1c[nH]c2ccccc12)NC(=O)[C@H](N)CC(N)=O)C(=O)N[C@@H](Cc1ccccc1)C(N)=O [Compound No. 225, D-Asn-D-Trp-Asn-Ser-Phe-Gly-Leu-Arg(Me)-Phe-NH2] (H-[dN][dW]NSFGL[Arg(Me)]F-NH2) | 1 |
| CNC(=N)NCCC[C@H](NC(=O)[C@H](CC(C)C)NC(=O)CNC(=O)[C@H](Cc1ccccc1)NC(=O)[C@H](CO)NC(=O)[C@H](CC(N)=O)NC(=O)[C@H](CO)NC(=O)[C@H](N)Cc1ccc(O)cc1)C(=O)N[C@@H](Cc1ccccc1)C(N)=O [Compound No. 226] (H-[dY]SNSFGL[Arg(Me)]F-NH2) | 1 |
| CNC(=N)NCCC[C@H](NC(=O)[C@H](CC(C)C)NC(=O)CNC(=O)[C@H](Cc1ccccc1)NC(=O)[C@H](CO)NC(=O)[C@H](CC(N)=O)NC(=O)[C@@H](NC(=O)[C@H](N)Cc1ccc(O)cc1)[C@@H](C)O)C(=O)N[C@@H](Cc1ccccc1)C(N)=O [Compound No. 227] (H-[dY]TNSFGL[Arg(Me)]F-NH2) | 1 |
| CC[C@H](C)[C@H](NC(=O)[C@H](N)Cc1ccc(O)cc1)C(=O)N[C@@H](CC(N)=O)C(=O)N[C@@H](CO)C(=O)N[C@@H](Cc1ccccc1)C(=O)NCC(=O)N[C@@H](CC(C)C)C(=O)N[C@@H](CCCNC(=N)NC)C(=O)N[C@@H](Cc1ccccc1)C(N)=O [Compound No. 228] (H-[dY]INSFGL[Arg(Me)]F-NH2) | 5 |
| CNC(=N)NCCC[C@H](NC(=O)[C@H](CC(C)C)NC(=O)CNC(=O)[C@H](Cc1ccccc1)NC(=O)[C@H](CO)NC(=O)[C@H](CC(N)=O)NC(=O)[C@@H](NC(=O)[C@H](CC(N)=O)NC(=O)[C@H](N)Cc1ccc(O)cc1)C(C)C)C(=O)N[C@@H](Cc1ccccc1)C(N)=O [Compound No. 229] (H-[dY]NVNSFGL[Arg(Me)]F-NH2) | 1 |
| CNC(=N)NCCC[C@H](NC(=O)[C@H](CC(C)C)NC(=O)CNC(=O)[C@H](Cc1ccccc1)NC(=O)[C@H](CO)NC(=O)[C@H](CC(N)=O)NC(=O)[C@H](Cc1c[nH]c2ccccc12)NC(=O)[C@@H](CC(N)=O)NC(=O)[C@H](N)Cc1ccc(O)cc1)C(=O)N[C@@H](Cc1ccccc1)C(N)=O [Compound No. 230] | 10 |
| CNC(=N)NCCC[C@H](NC(=O)[C@H](CC(C)C)NC(=O)CNC(=O)[C@H](Cc1ccccc1)NC(=O)[C@H](CO)NC(=O)[C@H](CC(N)=O)NC(=O)[C@@H](Cc1c[nH]c2ccccc12)NC(=O)[C@@H](CC(N)=O)NC(=O)[C@H](N)Cc1ccc(O)cc1)C(=O)N[C@@H](Cc1ccccc1)C(N)=O [Compound No. 231, D-Tyr-D-Asn-D-Trp-Asn-Ser-Phe-Gly-Leu-Arg(Me)-Phe-NH2] | 1 |
